Where two headings read alike, the source gives them in different places.
Legend:
[1] = system: KRAS G12D mutant AGS cells; assay: Proliferation inhibition of AGS cells, CellTiter-Glo assay; assay type: cell-based, human; details: Homo sapiens, AGS, 72 h, 3 days, CTG; read-out: AGS IC50/nM
Protocol: AGS cells (Nanjing Kebai Biotechnology Co., Ltd., catalog number CBP60476, adherent, culture medium (F12K Nutrient Mixture+10% FBS (GIBCO, Cat#10091-148) were cultured at 37°C, 5% CO2, and 95% humidity at a density of 1500 cells/well. Cells in the logarithmic growth phase were harvested and counted using a Countstar automated cell counter based on the classic trypan blue staining method to ensure cell viability was above 90%. The cell concentration was adjusted, and 80 µL of cell suspension was added to each 96-well clear flat-bottomed, black-walled plate (Greiner, Cat# 655090). The cells in the 96-well plates were then cultured at 37°C and 5% CO2.
Drug preparation for IC50 assay: A 5-fold drug solution was prepared using culture medium. 20 µL of the drug solution was added to each well of a 96-well plate seeded with cells to achieve a working concentration of up to 10 µM, with a 3 × dilution, and a total of 9 concentrations. 2 replicate wells for each drug concentration were set. The cells in the drug-treated 96-well plates were cultured at 37°C and 5% CO2 for additional 3 days and then CTG assay were performed.
The cell plate was equilibrated to room temperature for 30 minutes and the CTG reagent (CellTiter-Glo® Luminescent Cell Viability Assay (Promega, Cat# G7573)) was thawed. 50 µL of CTG solution was added to each well and the plate was shaken on an orbital shaker for 2 minutes to lyse the cells. The cell plate was placed at room temperature for 10 minutes to stabilize the cryo-luminescence signal and the cryo-luminescence value was read (EnVision® Multifunctional microplate reader, PerkinElmer #2105).
(§1) Data was analyzed using GraphPad Prism software. The dose-response-inhibition equation was used to fit the data to obtain the dose-response curve, and the IC50 value (nM) was calculated accordingly. [formula]

[2] = system: KRAS G12V mutant NCI-H727 cells; assay: Proliferation inhibition of NCI-H727 cells, 3D CellTiter-Glo assay (Method B); assay type: cell-based, human; details: Homo sapiens, NCI-H727, 120 h, 3D culture with 0.65% methylcellulose, 5 days, CTG
Protocol: NCI-H727 cells (Nanjing Kebai Biotechnology Co., Ltd., catalog number CBP60182, adherent, culture medium RPMI-1640+10%FBS (GIBCO, Cat#10091-148)) were cultured at 37°C, 5% CO2, and 95% humidity.
3D cell viability assay: Cells in the logarithmic growth phase were harvested and counted using a platelet counter. Cell viability was assessed using the trypan blue exclusion method to ensure a viability of over 90%. The 3D cell culture medium was prepared by adding 1% MC (methylcellulose, Sigma, Cat#M0512) to RPMI-1640 medium and 10% FBS. The cell concentration was adjusted to approximately 25,000 cells/mL using the 3D medium, and the methylcellulose (MC) content was set to 0.65%. Then, 80 µL of cell suspension was added to each 96-well clear, flat-bottomed, black-walled plate (Greiner, Cat# 655096). The cells in the 96-well plates were cultured overnight at 37°C and 5% CO2.
Drug preparation for IC50 assay: A 5-fold drug solution was prepared using culture medium. 20 µL of the drug solution was added to each well of a 96-well plate seeded with cells to achieve a working concentration of up to 10 µM, with a 3× dilution, and 9 concentrations. 2 replicate wells for each drug concentration were set. The cells in the drug-treated 96-well plates were cultured at 37°C and 5% CO2 for additional 5 days, then CTG assay (CellTiter-Glo® Luminescent Cell Viability Assay (Promega, Cat#G7573)) were performed.
The cell plate was equilibrated to room temperature for 30 minutes and the CTG reagent was thawed. 50 µL of CTG solution was added to each well for detection and the plate was shaken on an orbital shaker for 5 minutes to lyse the cells. The cell plate was then placed at room temperature for 25 minutes to stabilize the cryo-luminescence signal, and the cryo-luminescence value was read (EnVision® multi-plate reader, PerkinElmer#2105).
as §1

[3] = Method B, read-out: NCI-H727 IC50/nM

IC50 ([2]; read-out: NCI-H727 IC50/nM, Method B) [nM] | SMILES | IC50 [1] [nM] | IC50 [2, 3] [nM]
– | CCc1cc2c(N3Cc4cc(C(=O)N(C)C)nn4CCC3C)nc(OCC3(C)CN(CC)CCC3=CF)nc2c(Cl)c1-c1c(F)ccc2sc(N)c(C#N)c12 (stereo not shown) [Example 193] | < 1.5 | 2.1
– | CCN1CC/C(=C\F)[C@](C)(COc2nc(N3Cc4cc(C(=O)N(C)C)nn4CC[C@@H]3C)c3cc(Cl)c(-c4nccc5sc(N)c(C#N)c45)c(C)c3n2)C1 [Example 276A] | 18.5 | 33.4
– | CN1CC/C(=C\F)[C@](C)(COc2nc(N3CCCn4nc(C(=O)N(C)C)cc4C3)c3cc(/C=C\F)c(-c4cccc5sc(N)c(C#N)c45)c(F)c3n2)C1 (single isomer, unassigned) [Example 112B] | 5.3 | 11
– | CCN1CCC(=CF)C(C)(COc2nc(N3Cc4cc(C(=O)N5CCCC5)nn4CCC3C)c3cc(Cl)c(-c4c(F)ccc5sc(N)c(C#N)c45)c(F)c3n2)C1 (stereo not shown) [Example 262A] | 2.9 | 2.4
– | CCc1cc2c(N3Cc4cc(C(=O)N(C)C)nn4CCC3C)nc(OCC3(C)CN(CC)CCC3=CF)nc2c(C)c1-c1c(F)ccc2sc(N)c(C#N)c12 (stereo not shown) [Example 189] | 2 | 2.6
– | [2H]C([2H])([2H])N1CC/C(=C\F)[C@](C)(COc2nc(N3CCCn4nc(C(=O)N(C)C)cc4C3)c3cc(C(F)(F)F)c(-c4c(F)ccc5sc(N)c(C#N)c45)c(F)c3n2)C1 [Example 68, 5-(7-(2-amino-3-cyano-5-fluorobenzo[b]thiophene-4-yl)-8-fluoro-2-(((S,E)-4-(fluoromethylene)-3-methyl-1-(methyl-d3)piperidine-3-yl)methoxy)-6-(trifluoromethyl)quinazoline-4-yl)-N,N-dimethyl-5,6,7,8-tetrahydro-4H-pyrazolo[1,5-a][1,4]diazepine-2-formamide] | 1.9 | 6.4
– | CCN1CC/C(=C\F)[C@](C)(COc2nc(N3Cc4cc(C(=O)N(C)C)nn4CC[C@@H]3C)c3cc(Cl)c(-c4ncc(F)c5sc(N)c(C#N)c45)c(F)c3n2)C1 (single isomer, unassigned) [Example 231A] | 2.5 | 4.4
– | [2H]C([2H])([2H])N1CC/C(=C\F)[C@](C)(COc2nc(N3CCOC[C@@](C)(O)C3)c3cc(Cl)c(-c4cccc5sc(N)c(C#N)c45)c(F)c3n2)C1 [Example 84, 2-Amino-4-(6-chloro-8-fluoro-2-(((S,E)-4-(fluoromethylene)-3-methyl-1-(methyl-d3)piperidine-3-yl)methoxy)-4-((S)-6-hydroxy-6-methyl-1,4-oxazacycloheptane-4-yl)quinazoline-7-yl)benzo[b]thiophene-3-carbonitrile] | 59 | 77.7
5 | CN1CC/C(=C\F)[C@](C)(COc2nc(N3CCOC[C@@](C)(O)C3)c3cc(C(F)(F)F)c(-c4ccc(F)c5sc(N)c(C#N)c45)c(F)c3n2)C1 [Example 16] | 13.2 | –
– | CN1CC/C(=C\F)[C@](C)(COc2nc(N3CCCn4nc(C(=O)N(C)C)c(Cl)c4C3)c3cc(C4CC4)c(-c4ncc(F)c5sc(N)c(C#N)c45)c(F)c3n2)C1 [Example 167A] | 21.7 | 96.7
– | CN1CC/C(=C\F)[C@](C)(COc2nc(N3CCCN4C(=O)OCC4C3)c3cc(C(F)(F)F)c(-c4cccc5sc(N)c(C#N)c45)c(F)c3n2)C1 (stereo partly shown) [Example 113] | 584 | 168
– | CCN1CCC(=CF)C(C)(COc2nc(N3Cc4cc(C(=O)N5CCC5)nn4CCC3C)c3cc(Cl)c(-c4c(F)ccc5sc(N)c(C#N)c45)c(F)c3n2)C1 (stereo not shown) [Example 254A] | < 1.5 | < 1.5
– | CCc1cc2c(N3Cc4cc(C(=O)N(C)C)nn4CC[C@@H]3C)nc(OC[C@]3(C)CN(C)CC/C3=C\F)nc2c(F)c1-c1ncc(F)c2sc(N)c(C#N)c12 [Example 170A] | 33.2 | 81.9
– | C[C@H]1CCn2nc(C(=O)N(C)C)cc2CN1c1nc(OC[C@]2(C)CN(C)CC/C2=C\F)nc2c(F)c(-c3ncc(F)c4sc(N)c(C#N)c34)c(C3CC3)cc12 [Example 168A] | 42.1 | 85
– | CCc1cc2c(N3CCCn4nc(C(=O)N(C)C)c(Cl)c4C3)nc(OC[C@]3(C)CN(C)CC/C3=C\F)nc2c(F)c1-c1ncc(F)c2sc(N)c(C#N)c12 [Example 169A] | 14.6 | 59.9
– | [2H]C([2H])([2H])N1CC/C(=C\F)[C@](C)(COc2nc(N3Cc4c(C)c(C(=O)N(C)C)nn4CC[C@@H]3C)c3cc(CC)c(-c4c(F)ccc5sc(N)c(C#N)c45)c(F)c3n2)C1 (single isomer, unassigned) [Example 183A] | < 1.5 | < 1.5
– | CCc1cc2c(N3Cc4cc(C(=O)N(C)C)nn4CC[C@@H]3C)nc(OC[C@]3(C)CN(C)CC/C3=C\F)nc2c(F)c1-c1ccc(F)c2sc(N)c(C#N)c12 [Example 166A] | 4.9 | 7.4
– | [2H]C([2H])([2H])N1CCC(=CF)C(C)(COc2nc(N3Cc4cc(C(=O)N5CCOCC5)nn4CCC3C)c3cc(CC)c(-c4c(F)ccc5sc(N)c(C#N)c45)c(F)c3n2)C1 (stereo not shown) [Example 263A] | 2.5 | 2.5
– | [2H]C([2H])([2H])N1CCC(=CF)C(C)(COc2nc(N3Cc4cc(C(=O)N(C)C)nn4CCC3C)c3cc(CC)c(-c4c(F)ccc5sc(N)c(C#N)c45)c(Cl)c3n2)C1 (stereo not shown) [Example 192] | < 1.5 | 2
– | CCN1CC/C(=C\F)[C@](C)(COc2nc(N3Cc4c(COC)c(C(=O)N(C)C)nn4CC[C@@H]3C)c3cc(Cl)c(-c4ncc(F)c5sc(N)c(C#N)c45)c(F)c3n2)C1 [Example 271A] | 9.3 | 8.7
– | CCN1CCC(=CF)C(C)(COc2nc(N3Cc4cc(C(=O)N(C)CCF)nn4CCC3C)c3cc(Cl)c(-c4c(F)ccc5sc(N)c(C#N)c45)c(F)c3n2)C1 (stereo not shown) [Example 264A] | 2.3 | 2.8
– | CCN1CC/C(=C\F)[C@](C)(COc2nc(N3Cc4c(COC)c(C(=O)N(C)C)nn4CC[C@@H]3C)c3cc(Cl)c(-c4ncc(F)c5sc(N)c(C#N)c45)c(C)c3n2)C1 (single isomer, unassigned) [Example 238A] | 11.5 | 6.5
– | CN1CC/C(=C\F)[C@](C)(COc2nc(N3CCCn4nc(C(=O)N(C)C)cc4C3)c3cc(Cl)c(-c4cccc5sc(N)c(C#N)c45)c(F)c3n2)C1 (atropisomer, axis not shown; (Sa)) [Example 94A, (Sa)-5-(7-(2-amino-3-cyanobenzo[b]thiophene-4-yl)-6-chloro-8-fluoro-2-(((S,E)-4-(fluoromethylene)-1,3-dimethylpiperidine-3-yl)methoxy)quinazoline-4-yl)-N,N-dimethyl-5,6,7,8-tetrahydro-4H-pyrazolo[1,5-a][1,4]diazepine-2-formamide·formate] | 3.3 | 9
– | CCc1cc2c(N3Cc4cc(C(=O)N(C)C)nn4CC[C@@H]3C)nc(OC[C@]3(C)CN(C)CC/C3=C\F)nc2c(F)c1-c1cccc2sc(N)c(C#N)c12 [Example 165A] | 3.2 | 3.6
– | [2H]C([2H])([2H])N1CC/C(=C\F)[C@](C)(COc2nc(N3Cc4c(Cl)c(C(=O)N(C)C)nn4CC[C@@H]3C)c3cc(CC)c(-c4c(F)ccc5sc(N)c(C#N)c45)c(F)c3n2)C1 (single isomer, unassigned) [Example 182A] | 2 | < 1.5
– | CN1CC/C(=C\F)[C@](C)(COc2nc(N3CCCn4nc(C(=O)N(C)C)c(C#N)c4C3)c3cc(C(F)(F)F)c(-c4cccc5sc(N)c(C#N)c45)c(F)c3n2)C1 (single isomer, unassigned) [Example 119B] | < 1.5 | 6.9

Source: patent EP4775577A1, “RAS INHIBITOR” (Tyligand Bioscience (Shanghai) Limited, priority 2023, dated 2025)
